Ends that are not written are not given here.
System: HEK293-GLP-2R-Luc cells

HGEGTFSSELATILDALAARDFINWLIATKITDKKKKKK-NH2 [glepaglutide]
log2 (TD/Ctrl) CYP1B1: 1.052 | log2 (TD/Ctrl) CYP4V2: −1.198 | log2 (TD/Ctrl) CYP4 × 1: −1.963 | log2 (TD/Ctrl) TRPV1 (Qvalue 0.001125): −1.038 | log2 (TD/Ctrl) NEK8 (Qvalue 0.001147): −1.057 | log2 (TD/Ctrl) METTL25 (Qvalue 0.001214): −1.045 | log2 (TD/Ctrl) ITGA8 (Qvalue 0.001396): −1.102 | log2 (TD/Ctrl) UBOX5 (Qvalue 0.00141): 1.051 | log2 (TD/Ctrl) CC2D2A (Qvalue 0.001438): −1.1174 | log2 (TD/Ctrl) DERL3 (Qvalue 0.001478): −1.237 | log2 (TD/Ctrl) ADAM12 (Qvalue 0.001549): 1.112 | log2 (TD/Ctrl) RBPMS2 (Qvalue 0.001565): 1.069 | log2 (TD/Ctrl) RBM11 (Qvalue 0.001608): 1.143 | log2 (TD/Ctrl) SLCO2A1 (Qvalue 0.001637): 1.773 | log2 (TD/Ctrl) AMH (Qvalue 0.001638): −1.122 | log2 (TD/Ctrl) EMP1 (Qvalue 0.001666): 1.518 | log2 (TD/Ctrl) RNLS (Qvalue 0.001684): 2.251 | log2 (TD/Ctrl) AATK (Qvalue 0.001714): 1.156 | log2 (TD/Ctrl) ZSWIM4 (Qvalue 0.001797): 1.054 | log2 (TD/Ctrl) NGEF (Qvalue 0.001858): 1.549 | log2 (TD/Ctrl) LOC124901228 (Qvalue 0.002022): −1.299 | log2 (TD/Ctrl) HILPDA (Qvalue 0.00213): −1.215 | log2 (TD/Ctrl) GPRASP3 (Qvalue 0.002224): −1.474 | log2 (TD/Ctrl) SRGAP3 (Qvalue 0.002313): −1.063 | log2 (TD/Ctrl) PPEF1 (Qvalue 0.002369): 1.543 | log2 (TD/Ctrl) BOK (Qvalue 0.002402): 1.599 | log2 (TD/Ctrl) PRR7 (Qvalue 0.002734): 1.209 | log2 (TD/Ctrl) SAT1 (Qvalue 0.002832): 2.416 | log2 (TD/Ctrl) SDHAF4 (Qvalue 0.002952): 1.018 | log2 (TD/Ctrl) IL7R (Qvalue 0.003482): 2.4 | log2 (TD/Ctrl) RHOB (Qvalue 0.003482): 2.852 | log2 (TD/Ctrl) CCDC61 (Qvalue 0.003634): 1.663 | log2 (TD/Ctrl) H2BC21 (Qvalue 0.004109): 1.259 | log2 (TD/Ctrl) CXCL12 (Qvalue 0.004272): −2.422 | log2 (TD/Ctrl) UGT3A1 (Qvalue 0.004706): 3.069 | log2 (TD/Ctrl) MYPN (Qvalue 0.005296): 2.401 | log2 (TD/Ctrl) PTPRN (Qvalue 0.005327): 3.046 | log2 (TD/Ctrl) RHBDF1 (Qvalue 0.005404): 1.083 | log2 (TD/Ctrl) KLF2 (Qvalue 0.005739): 1.928 | log2 (TD/Ctrl) SH2D2A (Qvalue 0.005953): 2.922 | log2 (TD/Ctrl) SYT4 (Qvalue 0.005991): 2.338 | log2 (TD/Ctrl) NTRK2 (Qvalue 0.006147): 1.454 | log2 (TD/Ctrl) PLPP2 (Qvalue 0.006233): 1.309 | log2 (TD/Ctrl) ATG16L2 (Qvalue 0.006489): 1.087 | log2 (TD/Ctrl) ASGR1 (Qvalue 0.00679): 2.135 | log2 (TD/Ctrl) DHRS9 (Qvalue 0.007207): 2.367 | log2 (TD/Ctrl) SH2D5 (Qvalue 0.00738): 1.053 | log2 (TD/Ctrl) SLC30A3 (Qvalue 0.007467): 1.182 | log2 (TD/Ctrl) SHANK2 (Qvalue 0.007984): 2.035 | log2 (TD/Ctrl) NAA80 (Qvalue 0.008009): 1.249 | log2 (TD/Ctrl) CLIP2 (Qvalue 0.008212): 1.052 | log2 (TD/Ctrl) LOC128125822 (Qvalue 0.008527): 2.711 | log2 (TD/Ctrl) RND1 (Qvalue 0.008622): 1.057 | log2 (TD/Ctrl) SH3RF2 (Qvalue 0.008648): 1.516 | log2 (TD/Ctrl) DUSP2 (Qvalue 0.008669): 3.424 | log2 (TD/Ctrl) MAGED4 (Qvalue 0.009809): −1.159 | log2 (TD/Ctrl) MAP6 (Qvalue 0.009857): 1.691 | log2 (TD/Ctrl) TMEM225B (Qvalue 0.010366): 1.448 | log2 (TD/Ctrl) CHRD (Qvalue 0.010428): 1.261 | log2 (TD/Ctrl) FNTB (Qvalue 0.011191): −1.039 | log2 (TD/Ctrl) MARVELD3 (Qvalue 0.011267): 1.031 | log2 (TD/Ctrl) FSTL4 (Qvalue 0.011445): 1.312 | log2 (TD/Ctrl) POC1B-GALNT4 (Qvalue 0.011547): −1.319 | log2 (TD/Ctrl) GDPGP1 (Qvalue 0.011565): −1.43 | log2 (TD/Ctrl) CREG2 (Qvalue 0.012071): 1.949 | log2 (TD/Ctrl) CERS4 (Qvalue 0.01208): 1.131 | log2 (TD/Ctrl) ANKRD1 (Qvalue 0.012462): 2.953 | log2 (TD/Ctrl) PLEKHN1 (Qvalue 0.012462): 2.21 | log2 (TD/Ctrl) KRT75 (Qvalue 0.012583): 2.099 | log2 (TD/Ctrl) ALDH1L2 (Qvalue 0.012744): 1.303 | log2 (TD/Ctrl) GUCA1B (Qvalue 0.013456): 1.026 | log2 (TD/Ctrl) SH2D3A (Qvalue 0.013825): 1.146 | log2 (TD/Ctrl) CATSPERE (Qvalue 0.013837): −2.496 | log2 (TD/Ctrl) TFEB (Qvalue 0.014032): 1.085 | log2 (TD/Ctrl) SCN2A (Qvalue 0.014161): −2.494 | log2 (TD/Ctrl) FAM47E-STBD1 (Qvalue 0.014365): 6.132 | log2 (TD/Ctrl) IL11 (Qvalue 0.014439): 2.543 | log2 (TD/Ctrl) ICOSLG (Qvalue 0.015122): 1.337 | log2 (TD/Ctrl) HHIP (Qvalue 0.016047): 1.114 | log2 (TD/Ctrl) COL15A1 (Qvalue 0.016322): 2.733 | log2 (TD/Ctrl) ADAMTSL1 (Qvalue 0.016921): 1.769 | log2 (TD/Ctrl) AJM1 (Qvalue 0.017304): −1.327 | log2 (TD/Ctrl) RASGRP3 (Qvalue 0.017723): 1.426 | log2 (TD/Ctrl) ZNF233 (Qvalue 0.018109): −1.102 | log2 (TD/Ctrl) ADM2 (Qvalue 0.018318): 1.127 | log2 (TD/Ctrl) FMNL1 (Qvalue 0.018333): 1.446 | log2 (TD/Ctrl) PHF24 (Qvalue 0.018911): 1.839 | log2 (TD/Ctrl) MAP2 (Qvalue 0.019619): −1.138 | log2 (TD/Ctrl) BCL3 (Qvalue 0.020272): 1.728 | log2 (TD/Ctrl) EXO5 (Qvalue 0.020878): −1.023 | log2 (TD/Ctrl) POLN (Qvalue 0.020952): −1.364 | log2 (TD/Ctrl) C20orf204 (Qvalue 0.021231): −1.777

— paper PMC12073449, “Development of a Mechanism of Action-Reflective Cell-Based Reporter Gene Assay for Measuring Bioactivities of Therapeutic Glucagon-like Peptide-2 Analogues” (Molecules, 2025)
